Biological target: T1, Human CaV2.2 channels (Homo sapiens, UniProt Q00975)
T1 construct: expressed in transfected cells
Test: Fluorescence assay for CaV2.2 channels using potassium depolarization to induce channel opening (FLIPR, Fluo 4)
Format: cell-based
Details: alternative assay buffer 30 mM KCl (inactivated channel state), HEK293 cells stably expressing human CaV2.2; for inhibition at 3 µM: HEK293, 3 μM test compound, read-out: Activity Category: %-Inhib (CaV2.2) @3 μM @30 mM KCl; for Activity Category: %-Inhib (CaV2.2) @3 μM @30 mM KCl: 3 μM test compound
Outline: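 HEK293 cells stably co-expressing CaV2.2 with alpha2-delta and beta subunits plus Kir2.3, loaded with 2 μM Fluo 4 and pre-incubated 15 min at 25° C with compound in 1 mM or 30 mM KCl buffer (pH 7.4; latter promotes inactivated state). Depolarized by KCl addition; peak fluorescence amplitude normalized to baseline gives inhibition.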

T1 sequence (P54289 947-1103): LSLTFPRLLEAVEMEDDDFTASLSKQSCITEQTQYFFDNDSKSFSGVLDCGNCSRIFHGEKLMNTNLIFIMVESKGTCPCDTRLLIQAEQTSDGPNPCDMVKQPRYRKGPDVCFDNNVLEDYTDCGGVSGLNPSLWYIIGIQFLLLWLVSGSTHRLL
T1 sequence (P54289 25-946): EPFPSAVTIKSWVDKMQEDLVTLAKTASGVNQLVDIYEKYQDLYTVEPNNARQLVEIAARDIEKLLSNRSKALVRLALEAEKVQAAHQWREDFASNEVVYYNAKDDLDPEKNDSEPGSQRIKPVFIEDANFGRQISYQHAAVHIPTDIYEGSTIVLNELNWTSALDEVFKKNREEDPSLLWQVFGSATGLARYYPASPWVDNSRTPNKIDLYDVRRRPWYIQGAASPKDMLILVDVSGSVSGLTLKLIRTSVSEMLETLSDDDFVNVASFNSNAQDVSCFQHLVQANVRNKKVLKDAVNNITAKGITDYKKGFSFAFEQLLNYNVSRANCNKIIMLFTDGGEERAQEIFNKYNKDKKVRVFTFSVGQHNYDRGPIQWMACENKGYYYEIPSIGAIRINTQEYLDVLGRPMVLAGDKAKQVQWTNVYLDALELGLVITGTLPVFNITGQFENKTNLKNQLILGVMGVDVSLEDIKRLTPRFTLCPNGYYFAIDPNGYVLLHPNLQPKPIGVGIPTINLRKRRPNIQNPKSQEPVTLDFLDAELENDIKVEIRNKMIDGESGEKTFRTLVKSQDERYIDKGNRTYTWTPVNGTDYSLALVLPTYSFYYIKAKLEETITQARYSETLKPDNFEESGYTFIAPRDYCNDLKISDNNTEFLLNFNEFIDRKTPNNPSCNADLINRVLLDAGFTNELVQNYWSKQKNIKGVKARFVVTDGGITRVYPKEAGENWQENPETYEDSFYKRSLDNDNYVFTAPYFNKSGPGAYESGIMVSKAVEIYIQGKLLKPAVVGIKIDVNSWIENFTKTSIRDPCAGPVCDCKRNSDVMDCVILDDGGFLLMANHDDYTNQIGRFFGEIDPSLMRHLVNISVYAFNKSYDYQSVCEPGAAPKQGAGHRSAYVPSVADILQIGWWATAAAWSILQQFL
T1 sequence (P54284 whole entry, further chain): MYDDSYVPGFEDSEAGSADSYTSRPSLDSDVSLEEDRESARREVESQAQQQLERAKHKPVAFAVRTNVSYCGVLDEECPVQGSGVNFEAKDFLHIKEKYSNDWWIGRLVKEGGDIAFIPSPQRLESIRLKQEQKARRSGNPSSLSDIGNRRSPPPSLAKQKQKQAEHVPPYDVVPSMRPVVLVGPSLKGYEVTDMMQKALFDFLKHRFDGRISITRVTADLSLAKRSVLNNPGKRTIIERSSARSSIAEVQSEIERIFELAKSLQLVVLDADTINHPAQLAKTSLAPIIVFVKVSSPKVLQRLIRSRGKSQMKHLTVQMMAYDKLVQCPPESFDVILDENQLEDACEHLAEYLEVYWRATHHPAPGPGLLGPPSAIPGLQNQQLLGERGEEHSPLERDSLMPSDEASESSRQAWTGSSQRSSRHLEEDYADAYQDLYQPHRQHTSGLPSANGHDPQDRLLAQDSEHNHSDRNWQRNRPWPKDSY
T1 sequence (Q00975 whole entry): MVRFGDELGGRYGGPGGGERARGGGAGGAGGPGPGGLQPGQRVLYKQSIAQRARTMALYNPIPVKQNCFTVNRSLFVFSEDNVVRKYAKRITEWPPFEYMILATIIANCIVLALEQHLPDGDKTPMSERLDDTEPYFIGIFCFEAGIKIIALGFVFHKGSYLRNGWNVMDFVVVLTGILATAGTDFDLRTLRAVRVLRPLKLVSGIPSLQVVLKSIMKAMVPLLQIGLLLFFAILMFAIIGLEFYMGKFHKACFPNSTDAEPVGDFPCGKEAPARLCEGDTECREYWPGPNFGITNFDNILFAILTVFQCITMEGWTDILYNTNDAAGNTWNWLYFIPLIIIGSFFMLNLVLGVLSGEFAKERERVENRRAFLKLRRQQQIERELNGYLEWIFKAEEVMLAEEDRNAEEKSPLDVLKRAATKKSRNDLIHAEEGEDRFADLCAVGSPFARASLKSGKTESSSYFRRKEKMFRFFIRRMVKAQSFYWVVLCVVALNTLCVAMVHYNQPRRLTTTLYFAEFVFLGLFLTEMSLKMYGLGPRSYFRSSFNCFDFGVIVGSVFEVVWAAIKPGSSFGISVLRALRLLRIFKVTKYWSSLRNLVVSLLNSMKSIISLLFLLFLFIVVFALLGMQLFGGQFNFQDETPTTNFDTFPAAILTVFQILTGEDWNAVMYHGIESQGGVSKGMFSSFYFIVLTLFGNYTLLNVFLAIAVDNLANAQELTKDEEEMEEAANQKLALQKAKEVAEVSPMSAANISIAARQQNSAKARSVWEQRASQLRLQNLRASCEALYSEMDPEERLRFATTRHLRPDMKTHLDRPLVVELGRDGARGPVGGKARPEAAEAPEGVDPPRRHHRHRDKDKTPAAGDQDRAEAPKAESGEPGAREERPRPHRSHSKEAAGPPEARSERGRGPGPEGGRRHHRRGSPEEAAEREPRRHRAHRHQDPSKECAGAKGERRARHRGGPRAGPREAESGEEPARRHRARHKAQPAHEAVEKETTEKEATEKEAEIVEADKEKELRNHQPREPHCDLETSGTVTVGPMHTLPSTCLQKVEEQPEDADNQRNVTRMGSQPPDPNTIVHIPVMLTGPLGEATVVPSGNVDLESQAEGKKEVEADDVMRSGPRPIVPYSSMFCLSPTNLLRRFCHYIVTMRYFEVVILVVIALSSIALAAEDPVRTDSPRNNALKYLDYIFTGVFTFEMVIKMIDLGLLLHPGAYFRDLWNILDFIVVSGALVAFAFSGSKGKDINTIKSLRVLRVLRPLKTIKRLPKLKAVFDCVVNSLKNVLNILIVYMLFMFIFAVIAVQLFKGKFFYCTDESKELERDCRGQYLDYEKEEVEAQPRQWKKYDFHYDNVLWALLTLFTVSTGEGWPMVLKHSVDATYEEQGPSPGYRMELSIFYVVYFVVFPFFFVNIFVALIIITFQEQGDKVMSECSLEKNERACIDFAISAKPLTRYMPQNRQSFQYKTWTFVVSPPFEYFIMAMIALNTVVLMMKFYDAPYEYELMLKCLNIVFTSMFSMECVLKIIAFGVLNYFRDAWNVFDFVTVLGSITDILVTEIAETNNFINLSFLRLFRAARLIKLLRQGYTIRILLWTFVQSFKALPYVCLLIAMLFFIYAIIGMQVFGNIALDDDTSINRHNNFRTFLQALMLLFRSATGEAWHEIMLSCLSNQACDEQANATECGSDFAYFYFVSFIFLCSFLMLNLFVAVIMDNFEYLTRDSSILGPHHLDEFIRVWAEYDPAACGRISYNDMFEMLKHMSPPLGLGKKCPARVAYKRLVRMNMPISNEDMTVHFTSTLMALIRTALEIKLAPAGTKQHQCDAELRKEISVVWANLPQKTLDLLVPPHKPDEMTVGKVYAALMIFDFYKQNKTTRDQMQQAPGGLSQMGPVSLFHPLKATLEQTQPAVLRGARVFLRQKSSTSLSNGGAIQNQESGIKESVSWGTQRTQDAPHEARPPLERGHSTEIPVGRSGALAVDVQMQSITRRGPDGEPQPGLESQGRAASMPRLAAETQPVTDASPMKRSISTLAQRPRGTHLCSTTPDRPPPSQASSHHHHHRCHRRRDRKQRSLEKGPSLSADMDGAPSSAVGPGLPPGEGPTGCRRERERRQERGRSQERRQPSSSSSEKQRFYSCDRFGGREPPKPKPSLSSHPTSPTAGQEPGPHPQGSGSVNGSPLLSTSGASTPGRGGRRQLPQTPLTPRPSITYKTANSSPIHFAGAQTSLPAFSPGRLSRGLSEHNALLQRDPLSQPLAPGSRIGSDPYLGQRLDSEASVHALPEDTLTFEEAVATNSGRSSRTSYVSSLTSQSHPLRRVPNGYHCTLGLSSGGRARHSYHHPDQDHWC

SMILES: CNc1ccc(C2CC(C)(S(=O)(=O)c3cccc(C(F)(F)F)c3)CCO2)cn1 (centres unmarked) [SC-408, Methyl-[5-[4-methyl-4-[[3-(trifluoromethyl)phenyl]sulfonyl]-tetrahydro-pyran-2-yl]-pyridin-2-yl]-amine]
- inhibition at 3 µM: 75 to 95%

SMILES: COc1ncc(C2CC(C)(S(=O)(=O)c3cccc(C(F)(F)F)c3)CCO2)cn1 (centres unmarked) [SC-410, 2-Methoxy-5-[4-methyl-4-[[3-(trifluoromethyl)phenyl]sulfonyl]-tetrahydro-pyran-2-yl]-pyrimidine]
- inhibition at 3 µM: 40 to 75%

SMILES: CN(C)c1ncc(C2CC(C)(S(=O)(=O)c3cccc(C(F)(F)F)c3)CCO2)cn1 (centres unmarked) [SC-413, Dimethyl-[5-[4-methyl-4-[[3-(trifluoromethyl)phenyl]sulfonyl]-tetrahydro-pyran-2-yl]-pyrimidin-2-yl]-amine]
- inhibition at 3 µM: 75 to 95%

SMILES: COc1cnc(C2CC(C)(S(=O)(=O)c3cccc(C(F)(F)F)c3)CCO2)cn1 (centres unmarked) [SC-415, 2-Methoxy-5-[4-methyl-4-[[3-(trifluoromethyl)phenyl]sulfonyl]-tetrahydro-pyran-2-yl]-pyrazine]
- inhibition at 3 µM: 75 to 95%

SMILES: CC1(S(=O)(=O)c2cccc(C(F)(F)F)c2)CCOC(c2ccc(OC(F)F)nc2)C1 (centres unmarked) [SC-418, 2-(Difluoro-methoxy)-5-[4-methyl-4-[[3-(trifluoromethyl)phenyl]sulfonyl]-tetrahydro-pyran-2-yl]-pyridine]
- inhibition at 3 µM: > 95%

SMILES: CN(C)c1cnc(C2CC(C)(S(=O)(=O)c3cccc(C(F)(F)F)c3)CCO2)cn1 (centres unmarked) [SC-421, Dimethyl-[5-[4-methyl-4-[[3-(trifluoromethyl)phenyl]sulfonyl]-tetrahydro-pyran-2-yl]-pyrazin-2-yl]-amine]
- inhibition at 3 µM: 75 to 95%

SMILES: CC1(S(=O)(=O)c2cccc(C(F)(F)F)c2)CCOC(c2ncc(C3CC3)cc2Cl)C1 (centres unmarked) [SC-425, 3-Chloro-5-cyclopropyl-2-[4-methyl-4-[[3-(trifluoromethyl)phenyl]sulfonyl]-tetrahydro-pyran-2-yl]-pyridine]
- inhibition at 3 µM: > 95%

SMILES: CC1(S(=O)(=O)c2cccc(C(F)(F)F)c2)CCOC(c2ncc(OC(F)F)cc2Cl)C1 (centres unmarked) [SC-427, 3-Chloro-5-(difluoro-methoxy)-2-[4-methyl-4-[[3-(trifluoromethyl)phenyl]sulfonyl]-tetrahydro-pyran-2-yl]-pyridine]
- inhibition at 3 µM: > 95%

SMILES: Cn1nc(S(C)(=O)=O)cc1C1CC(C)(S(=O)(=O)c2cccc(C(F)(F)F)c2)CCO1 (centres unmarked) [SC-429, 1-Methyl-3-methylsulfonyl-5-[4-methyl-4-[[3-(trifluoromethyl)phenyl]sulfonyl]-tetrahydro-pyran-2-yl]-1H-pyrazole]
- Activity Category: %-Inhib (CaV2.2) @3 μM @30 mM KCl: C (%-Inhibition >40% up to ≤75%)

SMILES: Cn1nc(S(C)(=O)=O)cc1C1CC(C)(S(=O)(=O)c2cccc(C(F)(F)F)c2)CCO1 (centres unmarked) [SC-430, 1-Methyl-3-methylsulfonyl-5-[4-methyl-4-[[3-(trifluoromethyl)phenyl]sulfonyl]-tetrahydro-pyran-2-yl]-1H-pyrazole]
- Activity Category: %-Inhib (CaV2.2) @3 μM @30 mM KCl: B (%-Inhibition >75% up to ≤95%)

SMILES: Cn1nc(C2CC2)cc1C1CC(C)(S(=O)(=O)c2cccc(C(F)(F)F)c2)CCO1 (centres unmarked) [SC-431, 3-Cyclopropyl-1-methyl-5-[4-methyl-4-[[3-(trifluoromethyl)phenyl]sulfonyl]-tetrahydro-pyran-2-yl]-1H-pyrazole]
- inhibition at 3 µM: 75 to 95%

SMILES: Cn1nc(C2CC2)cc1C1CC(C)(S(=O)(=O)c2cccc(C(F)(F)F)c2)CCO1 (centres unmarked) [SC-432, 3-Cyclopropyl-1-methyl-5-[4-methyl-4-[[3-(trifluoromethyl)phenyl]sulfonyl]-tetrahydro-pyran-2-yl]-1H-pyrazole]
- Activity Category: %-Inhib (CaV2.2) @3 μM @30 mM KCl: A (%-Inhibition >95%)

SMILES: CC1(S(=O)(=O)c2cccc(OC(F)F)c2)CCOC(c2ncc(S(C)(=O)=O)cc2Cl)C1 (centres unmarked) [SC-436, 3-Chloro-2-[4-[[3-(difluoro-methoxy)-phenyl]sulfonyl]-4-methyl-tetrahydro-pyran-2-yl]-5-methylsulfonyl-pyridine]
- Activity Category: %-Inhib (CaV2.2) @3 μM @30 mM KCl: C (%-Inhibition >40% up to ≤75%)

SMILES: CC1(S(=O)(=O)c2cccc(OC(F)F)c2)CCOC(c2ncc(S(C)(=O)=O)cc2Cl)C1 (centres unmarked) [SC-437, 3-Chloro-2-[4-[[3-(difluoro-methoxy)-phenyl]sulfonyl]-4-methyl-tetrahydro-pyran-2-yl]-5-methylsulfonyl-pyridine]
- Activity Category: %-Inhib (CaV2.2) @3 μM @30 mM KCl: B (%-Inhibition >75% up to ≤95%)

SMILES: CC1(S(=O)(=O)c2cccc(Cl)c2)CCOC(c2ncc(S(C)(=O)=O)cc2Cl)C1 (centres unmarked) [SC-439, 3-Chloro-2-[4-[(3-chlorophenyl)sulfonyl]-4-methyl-tetrahydro-pyran-2-yl]-5-methylsulfonyl-pyridine]
- Activity Category: %-Inhib (CaV2.2) @3 μM @30 mM KCl: C (%-Inhibition >40% up to ≤75%)

SMILES: CC1(S(=O)(=O)c2cccc(Cl)c2)CCOC(c2ncc(S(C)(=O)=O)cc2Cl)C1 (centres unmarked) [SC-440, 3-Chloro-2-[4-[(3-chlorophenyl)sulfonyl]-4-methyl-tetrahydro-pyran-2-yl]-5-methylsulfonyl-pyridine]
- Activity Category: %-Inhib (CaV2.2) @3 μM @30 mM KCl: B (%-Inhibition >75% up to ≤95%)

SMILES: Cc1cc(S(C)(=O)=O)cnc1C1CC(C)(S(=O)(=O)c2cc(F)cc(C(F)F)c2)CCO1 (centres unmarked) [SC-442, 2-[4-[[3-(Difluoro-methyl)-5-fluoro-phenyl]sulfonyl]-4-methyl-tetrahydro-pyran-2-yl]-3-methyl-5-methylsulfonyl-pyridine]
- inhibition at 3 µM: 40 to 75%

SMILES: Cc1cc(S(C)(=O)=O)cnc1C1CC(C)(S(=O)(=O)c2cc(F)cc(C(F)(F)F)c2)CCO1 (centres unmarked) [SC-444, 2-[4-[[3-Fluoro-5-(trifluoromethyl)-phenyl]sulfonyl]-4-methyl-tetrahydro-pyran-2-yl]-3-methyl-5-methylsulfonyl-pyridine]
- Activity Category: %-Inhib (CaV2.2) @3 μM @30 mM KCl: B (%-Inhibition >75% up to ≤95%)

SMILES: Cc1cc(S(C)(=O)=O)cnc1C1CC(C)(S(=O)(=O)c2cc(F)cc(C(F)(F)F)c2)CCO1 (centres unmarked) [SC-445, 2-[4-[[3-Fluoro-5-(trifluoromethyl)-phenyl]sulfonyl]-4-methyl-tetrahydro-pyran-2-yl]-3-methyl-5-methylsulfonyl-pyridine]
- Activity Category: %-Inhib (CaV2.2) @3 μM @30 mM KCl: C (%-Inhibition >40% up to ≤75%)

SMILES: CC(C)c1cccc(S(=O)(=O)C2(C)CCOC(c3ncc(S(C)(=O)=O)cc3Cl)C2)c1 (centres unmarked) [SC-446, 3-Chloro-2-[4-[(3-isopropyl-phenyl)sulfonyl]-4-methyl-tetrahydro-pyran-2-yl]-5-methylsulfonyl-pyridine]
- inhibition at 3 µM: 75 to 95%

SMILES: CC(C)c1cccc(S(=O)(=O)C2(C)CCOC(c3ncc(S(C)(=O)=O)cc3Cl)C2)c1 (centres unmarked) [SC-447, 3-Chloro-2-[4-[(3-isopropyl-phenyl)sulfonyl]-4-methyl-tetrahydro-pyran-2-yl]-5-methylsulfonyl-pyridine]
- Activity Category: %-Inhib (CaV2.2) @3 μM @30 mM KCl: A (%-Inhibition >95%)

SMILES: Cc1cc(S(C)(=O)=O)cnc1C1CC(C)(S(=O)(=O)c2cccc(OC(F)(F)F)c2)CCO1 (centres unmarked) [SC-449, 3-Methyl-5-methylsulfonyl-2-[4-methyl-4-[[3-(trifluoromethyloxy)-phenyl]sulfonyl]-tetrahydro-pyran-2-yl]-pyridine]
- Activity Category: %-Inhib (CaV2.2) @3 μM @30 mM KCl: B (%-Inhibition >75% up to ≤95%)

SMILES: Cc1cc(S(C)(=O)=O)cnc1C1CC(C)(S(=O)(=O)c2cccc(OC(F)(F)F)c2)CCO1 (centres unmarked) [SC-450, 3-Methyl-5-methylsulfonyl-2-[4-methyl-4-[[3-(trifluoromethyloxy)-phenyl]sulfonyl]-tetrahydro-pyran-2-yl]-pyridine]
- Activity Category: %-Inhib (CaV2.2) @3 μM @30 mM KCl: C (%-Inhibition >40% up to ≤75%)
